Patent US20240316043A1, “BROMODOMAIN INHIBITORS FOR CANCER THERAPY” (University of Tennessee Research Foundation, priority 2023, published 2024)
Entries after “also recorded” stand apart in the source; their conditions may differ.

Experiments:
T98G GBM cells = assay: IncuCyte live cell imaging proliferation assay; type: cell-based; conditions: TMZ (500 μM) plus bromodomain inhibitors (20 μM), FIG. 2
Procedure: T98G GBM cells were treated with TMZ (500 μM), the bromodomain inhibitors (20 μM), and cell proliferation was determined by Incucyte live cell assays using cellular confluence method. The data was normalized to the calculated cell confluence at day 0. Control cells were treated with vehicle (DMSO).
To further characterize the biological activity of selected bromodomain inhibitors, YH-IV-129, YH-IV-181 and YH-IV-191, IncuCyte live cell imaging proliferation assays were performed with the highly TMZ-resistant T98G GBM cell line.

BRG1 bromodomain = target: T1, BRG1 bromodomain (Homo sapiens, UniProt P51532); assay: Cellular thermal shift assay (CETSA), BRG1 bromodomain construct in MT330 cells; type: binding; set-up: binding to the BRG1 BRD: dose or concentration left out as unconfirmed; conditions: for thermostability of the BRG1 BRD: 30 μM, heating 44.5° C. to 55.6° C. for 5 min, immunoblot
T1 construct: expressed in transfected cells; host or cells: MT330 glioblastoma cells
Procedure: After heating over a temperature range from 44.5° C. to 55.6° C. for 5 min, the cells were lysed, placed on ice at 4° C. and then immunoblotted for BRG1 or actin.
(§1) For the CETSA, MT330 cells expressing the BRM (FIG. 6B), or BRG1 (FIG. 6C) the BRD construct were treated with bromodomain inhibitors […] and immunoblotted as indicated.
(§2) After heating over a temperature range from 44.5° C. to 55.6° C. for 5 min, MT330 cells were lysed and then immunoblotted for BRG1 or BRM.

BRM bromodomain = target: T2, BRM bromodomain (Homo sapiens, UniProt P51531); assay: Cellular thermal shift assay (CETSA), BRM bromodomain construct in MT330 cells; type: binding; set-up: binding to the BRM BRD: dose or concentration left out as unconfirmed; conditions: for thermostability of the BRM BRD: heating 44.5° C. to 55.6° C. for 5 min, immunoblot
T2 construct: expressed in transfected cells; host or cells: MT330 glioblastoma cells
Procedure: as §1, §2

[1] = tested on: intracranial GBM xenografts (MT330 cells); assay: Orthotopic GBM model, MT330 cells injected into brains of NSG mice; type: in vivo
Procedure: MT330 cells (10^6) were injected into the brains of NSG female mice. After tumors were identified by BLI (˜10 days post-injection), mice were IP injected with TMZ (60 mg/Kg body weight) or IV-129 (10 mg/Kg) alone or in combination 3 times per week (5 mice per group) for 2 weeks. […] FIG. 5C Kaplan-Meier analysis of the survival data (5 mice/group) of the brain tumor-bearing mice was performed.
MT330 cells […] were injected into the brains of NSG female mice. After tumors were identified by BLI (˜10 days post-injection), mice were IP injected with TMZ (10 mg/Kg body weight), IV-255 or IV-275 (20 mg/Kg) alone or in combination 3 times per week (5 mice/group).
Luciferase-expressing MT330 cells were injected into the brains of immunocompromised NSG mice. Once tumors were identified by bioluminescence imaging (BLI) at ˜10 days after tumor cell injection, mice were subjected to intraperitoneal injection of TMZ or YH-IV-129 alone, or in combination. At 20 days after initiation of treatment, live animal imaging was performed on an IVIS Lumina instrument. […] The mean survival of control mice was 27 days after cell injection (FIG. 5C).
Luciferase-expressing MT330 cells were injected into the brains of immunocompromised NSG mice. Once tumors were identified by bioluminescence imaging (BLI) at ˜10 days after tumor cell injection, mice were subjected to intraperitoneal injection of TMZ or YH-IV-255 or YH-IV-275 alone, or in combination. […] This is compelling preliminary evidence that these two new compounds have potent anticancer activity in intracranial GBM xenografts when combined with standard-of-care TMZ chemotherapy and that these drugs cross the blood-brain barrier.

MT330 cells = assay: γH2Ax immunostaining after bleomycin; type: cell-based; conditions: bleomycin alone (0.5 and 2 μM), 1 hr, FIG. 8
Procedure: After 1 hr of bleomycin treatment cell death, cells were fixed and immunostained for γH2Ax. Analysis of immunostaining was performed on at least 1,000 cells on the Lionheart FX imaging system.
Bleomycin is a chemotherapeutic drug that is used to treat various cancers. […] Thus, the ability of bleomycin to induce DNA damage as evidence by immunostaining of MT330 cells and LN229 with γH2Ax was tested. Quantification of cell staining was determined on the Lionheart FX imaging station.

MT330 GBM cells [2] = assay: Cell death ELISA in MT330 GBM cells; type: cell-based
MT330 GBM cells [3] = assay: Cell death ELISA in MT330 GBM cells; type: cell-based; conditions: for enhancement of TMZ-induced cell death: 10 mM inhibitor in combination with 200 mM of TMZ, 72 hrs, FIG. 1
Procedure: Control cells were treated with vehicle (DMSO). Cell death was determined at 72 hr after treatment by a cell death ELISA that quantifies histone-complexed DNA fragments. […]
Parental and BRG1 knockout MT330 cells were treated with bleomycin (0.01 μM) and bromodomain inhibitors […]. After 72 hr, cell death was determined by cell death ELISA.
The biological activity of bromodomain inhibitors was assessed for the ability to enhance TMZ-induced cell death. In brief, MT330 cells were treated with […] of bromodomain inhibitors alone, or in combination with […] of TMZ for 72 hrs, and GBM cell death was determined by a commercial ELISA.

BRM knockout MT330 cells = assay: Cell death ELISA in BRM knockout MT330 cells; type: cell-based; conditions: TMZ (500 μM) and bromodomain inhibitors (10 μM), 72 hr, FIG. 7
Procedure: BRG1 and BRM knockout MT330 cells were treated with TMZ (500 μM) and bromodomain inhibitors (10 μM). After 72 hr, cell death was determined by a cell death ELISA.
To further characterize the specificity of YH-IV-255 for the BRG1 bromodomain, GBM cell lines were generated with either BRG1 or BRM knocked out by CRISPR/Cas9 gene editing.^14 These cells were isolated by puromycin selection and the knockout of the either subunit was validated by immunoblotting.

LN229 GBM cells = assay: γH2Ax immunostaining after TMZ; type: cell-based; set-up: dose or concentration left out as unconfirmed; conditions: 24 hrs, FIG. 11
Procedure: After treatment for 24 hrs, cells were fixed and immunostained for gH2Ax. Analysis of immunostaining was performed on a laser confocal microscope.
As TMZ is DNA damaging agent, we tested the ability of various bromodomain inhibitors to enhance TMZ-induced DNA damage as evidence by immunostaining of GBM cells with γH2Ax and examination of the staining on a confocal microscope. γH2AX is the phosphorylated version of the histone variant H2Ax and is a highly specific and sensitive marker for monitoring DNA damage initiation and resolution. […] Similar results were obtained with MT330 GBM cells.

[4] = vehicle control band disappearing at 49.8° C., FIG. 3

T1 sequence (P51532 1453-1564 limits assumed): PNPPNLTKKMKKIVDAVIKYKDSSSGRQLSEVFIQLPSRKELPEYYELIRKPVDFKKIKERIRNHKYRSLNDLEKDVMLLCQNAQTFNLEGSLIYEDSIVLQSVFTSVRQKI
T2 sequence (P51531 1378-1506 limits assumed): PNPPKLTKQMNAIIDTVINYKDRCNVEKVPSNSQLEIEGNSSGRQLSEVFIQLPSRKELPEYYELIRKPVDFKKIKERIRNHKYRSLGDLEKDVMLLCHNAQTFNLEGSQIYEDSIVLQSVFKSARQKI

Compound: COc1ccc(N2C[C@H]3C[C@@H]2CN3C(=O)Nc2ccccc2)cc1 [YH-IV-181, (1R,4R)-5-(4-methoxyphenyl)-N-phenyl-2,5-diazabicyclo[2.2.1]heptane-2-carboxamide]
- sensitization to the antiproliferative action of TMZ (T98G GBM cells): potently sensitized T98G GBM cells to the antiproliferative action of TMZ
- thermostability of the BRG1 BRD (BRG1 bromodomain; FIG. 3): significantly increased the thermostability
- temperature at which the BRG1 BRD protein band is undetectable (BRG1 bromodomain; [4]): 54.20 °C
- thermostability of the BRM BRD (BRM bromodomain; FIG. 3): significantly increased the thermostability
- temperature at which the BRM BRD protein band is undetectable (BRM bromodomain; [4]): 54.20 °C

Compound: Cn1nnc2c(C(N)=O)ncn2c1=O [TMZ, temozolomide, reference compound]
- mean survival, either agent alone ([1]; TMZ (60 mg/Kg) or IV-129 (10 mg/Kg) alone IP, control mice 27 days, FIG. 5C): 35 days

Compound: COc1ccc(N2C[C@H]3C[C@@H]2CN3C(=O)NC(C)(C)C)cc1 [YH-IV-185, (1R,4R)-N-(tert-butyl)-5-(4-methoxyphenyl)-2,5-diazabicyclo[2.2.1]heptane-2-carboxamide]
- thermostability of the BRG1 BRD (BRG1 bromodomain; FIG. 3): only moderately increased the thermostability
- thermostability of the BRM BRD (BRM bromodomain; FIG. 3): only moderately increased the thermostability

Compound: bleomycin [reference compound]
- γH2Ax staining, bleomycin alone (MT330 cells): dose dependent increase of γH2Ax staining
- cell death, bleomycin alone (MT330 GBM cells [2]; low dose of bleomycin (0.01 µM), 72 hr, FIG. 9): induced low levels of cell death in MT330 cells

Compound: COc1ccc(N2C[C@H]3C[C@@H]2CN3C(=O)Oc2ccc(F)c(F)c2)cc1 [YH-IV-275, (1R,4R)-3,4-difluorophenyl 5-(4-methoxyphenyl)-2,5-diazabicyclo [2.2.1]heptane-2-carboxylate]
- enhancement of TMZ-induced cell death (MT330 GBM cells [3]): better efficacy than PFI-3; also recorded: somewhat more bioactive than YH-IV-129; also recorded: markedly enhanced TMZ sensitivity of GBM cells in vitro as compared to PFI-3
- enhancement of bleomycin-induced cell death (MT330 GBM cells [3]; bleomycin (0.01 μM) and bromodomain inhibitors (10 μM), 72 hr, FIG. 9): sensitized GBM cells to bleomycin-induced cell death
- cell death, inhibitor alone (MT330 GBM cells [3]; bromodomain inhibitors (10 μM) alone, 72 hr, FIG. 9): none of the bromodomain inhibitors (YH-IV-129, YH-IV-255 and YH-IV-275) alone had any death inducing activity
- binding to the BRG1 BRD (BRG1 bromodomain; CETSA, FIG. 6C): bind equivalently to the BRG1 BRD
- selectivity BRG1 versus BRM bromodomain (BRG1 bromodomain; conclusion from CETSA and knockout cells): inhibitor of both BRG1 and BRM domains
- binding to the BRM BRD (BRM bromodomain; CETSA, FIG. 6B): binds well to the BRM BRD
- bioluminescent signal in the brain ([1]; combination with TMZ (10 mg/Kg), IV-255 or IV-275 (20 mg/Kg) IP 3 times per week, 3-4 weeks after treatment, versus either agent alone, FIG. 10): decreased the bioluminescent signal in the brain
- enhancement of TMZ-induced cell death (BRM knockout MT330 cells): very similar activity in enhancing the cell death inducing activity in BRM knockout GBM cells
- γH2Ax staining, inhibitor with TMZ (LN229 GBM cells): marked increase in γH2Ax staining
- TMZ sensitivity (TMZ-induced cell death) (MT330 GBM cells [2]; TMZ (500 μM) and bromodomain inhibitors (10 μM), 24 hr, FIG. 6A): similarly increase the TMZ sensitivity of GBM cells

Compound: COc1ccc(N2C[C@H]3C[C@@H]2CN3C(=O)Oc2ccccc2)cc1 [YH-IV-235, (1R,4R)-phenyl 5-(4-methoxyphenyl)-2,5-diazabicyclo[2.2.1]heptane-2-carboxylate]
- enhancement of TMZ-induced cell death (MT330 GBM cells [3]): better efficacy than PFI-3

Compound: COc1ccc(N2CCN(C(=O)OC(C)(C)C)CC2)cc1 [YH-IV-189, tert-butyl 4-(4-methoxyphenyl)piperazine-1-carboxylate]
- thermostability of the BRG1 BRD (BRG1 bromodomain; FIG. 3): only moderately increased the thermostability
- thermostability of the BRM BRD (BRM bromodomain; FIG. 3): only moderately increased the thermostability

Compound: COc1ccc(N2C[C@H]3C[C@@H]2CN3C(=O)Nc2ccc(F)cc2)cc1 [YH-IV-211, (1R,4R)-N-(4-fluorophenyl)-5-(4-methoxyphenyl)-2,5-diazabicyclo[2.2.1]heptane-2-carboxamide]
- enhancement of TMZ-induced cell death (MT330 GBM cells [3]): better efficacy than PFI-3
